# Experimental data reported in PubChem BioAssay (NCI).
#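 Each compound was tested at five concentrations against cells in 96-well plates for 48 hours. GI50: concentration for 50% inhibition of growth. At the TGI there is no net growth.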
# Tests used:
# Assay in all cases: growth of human tumour cells (NCI), 48 h
# [1] = system: 786-0 renal
# [2] = system: A498 renal
# [3] = system: A549 NSCLC
# [4] = system: ACHN renal
# [5] = system: BT-549 breast
# [6] = system: CAKI-1 renal
# [7] = system: CCRF-CEM leukemia
# [8] = system: COLO 205 colon
# [9] = system: DU-145 prostate
# [10] = system: EKVX NSCLC
# [11] = system: HCC-2998 colon
# [12] = system: HCT-116 colon
# [13] = system: HCT-15 colon
# [14] = system: HL-60(TB) leukemia
# [15] = system: HOP-62 NSCLC
# [16] = system: HOP-92 NSCLC
# [17] = system: HS 578T breast
# [18] = system: HT29 colon
# [19] = system: IGROV1 ovarian
# [20] = system: K-562 leukemia
# [21] = system: KM12 colon
# [22] = system: LOX IMVI melanoma
# [23] = system: M14 melanoma
# [24] = system: MALME-3M melanoma
# [25] = system: MCF7 breast
# [26] = system: MDA-MB-231 breast
# [27] = system: MDA-MB-435
# [28] = system: MDA-MB-468 breast
# [29] = system: MOLT-4 leukemia
# [30] = system: NCI-H226 lung
# [31] = system: NCI-H23 lung
# [32] = system: NCI-H460 lung
# [33] = system: NCI-H522 lung
# [34] = system: OVCAR-3 ovarian
# [35] = system: OVCAR-4 ovarian
# [36] = system: OVCAR-5 ovarian
# [37] = system: OVCAR-8 ovarian
# [38] = system: PC-3 prostate
# [39] = system: RPMI-8226 leukemia
# [40] = system: RXF 393 renal
# [41] = system: SF-268 CNS
# [42] = system: SF-295 CNS
# [43] = system: SF-539 CNS
# [44] = system: SK-MEL-28 melanoma
# [45] = system: SK-MEL-5 melanoma
# [46] = system: SK-OV-3 ovarian
# [47] = system: SN12C renal
# [48] = system: SNB-19 CNS
# [49] = system: SNB-75 CNS
# [50] = system: SR leukemia
# [51] = system: SW-620 colon
# [52] = system: T-47D breast
# [53] = system: TK-10 renal
# [54] = system: U251 CNS
# [55] = system: UACC-257 melanoma
# [56] = system: UACC-62 melanoma
# [57] = system: UO-31 renal
# [58] = system: SK-MEL-2 melanoma
compound,measurement,setting,value
Cc1ccc(NC(=O)[C@]23CCC(C)(C)CC2C2=CCC4[C@@]5(C)C[C@@H](O)[C@H](O)[C@@](C)(CO)C5CC[C@@]4(C)[C@]2(C)CC3)cc1 (stereo not given in full),GI50,[1],12.8 µM
same,TGI,[1],26.4 µM
same,GI50,[2],14.1 µM
same,TGI,[2],27.4 µM
same,GI50,[3],12.9 µM
same,TGI,[3],> 100 µM
same,GI50,[4],10.4 µM
same,TGI,[4],22.1 µM
same,GI50,[5],12.4 µM
same,TGI,[5],25.4 µM
same,GI50,[6],5.1 µM
same,TGI,[6],20.4 µM
same,GI50,[7],11.1 µM
same,TGI,[7],38.9 µM
same,GI50,[8],12.1 µM
same,TGI,[8],27.5 µM
same,GI50,[9],15.2 µM
same,TGI,[9],32.6 µM
same,GI50,[10],9.25 µM
same,TGI,[10],23.9 µM
same,GI50,[11],6.91 µM
same,TGI,[11],21 µM
same,GI50,[12],7.24 µM
same,TGI,[12],20 µM
same,GI50,[13],6.9 µM
same,TGI,[13],19.9 µM
same,GI50,[14],5.44 µM
same,TGI,[14],36.5 µM
same,GI50,[15],14.3 µM
same,TGI,[15],29.1 µM
same,GI50,[16],8.43 µM
same,TGI,[16],23.1 µM
same,GI50,[17],12.4 µM
same,TGI,[17],48.6 µM
same,GI50,[18],7.44 µM
same,TGI,[18],20.1 µM
same,GI50,[19],11.1 µM
same,TGI,[19],23.8 µM
same,GI50,[20],12.1 µM
same,TGI,[20],87.6 µM
same,GI50,[21],12.8 µM
same,TGI,[21],28.2 µM
same,GI50,[22],5.27 µM
same,TGI,[22],19.1 µM
same,GI50,[23],12.4 µM
same,TGI,[23],25.2 µM
same,GI50,[24],12.1 µM
same,TGI,[24],25.1 µM
same,GI50,[25],4.12 µM
same,TGI,[25],15.5 µM
same,GI50,[26],12.2 µM
same,TGI,[26],26.1 µM
same,GI50,[27],11.5 µM
same,TGI,[27],23.7 µM
same,GI50,[28],4.52 µM
same,TGI,[28],18.1 µM
same,GI50,[29],6.88 µM
same,TGI,[29],50.7 µM
same,GI50,[30],11 µM
same,TGI,[30],23.8 µM
same,GI50,[31],12.7 µM
same,TGI,[31],26.8 µM
same,GI50,[32],10.5 µM
same,TGI,[32],23.1 µM
same,GI50,[33],12.9 µM
same,TGI,[33],26.6 µM
same,GI50,[34],13.5 µM
same,TGI,[34],27.3 µM
same,GI50,[35],7.81 µM
same,TGI,[35],23.3 µM
same,GI50,[36],12.8 µM
same,TGI,[36],25.7 µM
same,GI50,[37],14.2 µM
same,TGI,[37],35.5 µM
same,GI50,[38],5.46 µM
same,TGI,[38],21.5 µM
same,GI50,[39],4.79 µM
same,TGI,[39],25.8 µM
same,GI50,[40],2.9 µM
same,TGI,[40],11.6 µM
same,GI50,[41],10.2 µM
same,TGI,[41],32.2 µM
same,GI50,[42],8.28 µM
same,TGI,[42],21.4 µM
same,GI50,[43],12.7 µM
same,TGI,[43],25.6 µM
same,GI50,[44],13 µM
same,TGI,[44],26 µM
same,GI50,[45],6.45 µM
same,TGI,[45],19.3 µM
same,GI50,[46],13.9 µM
same,TGI,[46],34 µM
same,GI50,[47],10.9 µM
same,TGI,[47],23.1 µM
same,GI50,[48],16.5 µM
same,TGI,[48],43.4 µM
same,GI50,[49],1.88 µM
same,TGI,[49],31.4 µM
same,GI50,[50],5.58 µM
same,TGI,[50],> 100 µM
same,GI50,[51],12.5 µM
same,TGI,[51],27.5 µM
same,GI50,[52],6.94 µM
same,TGI,[52],20.6 µM
same,GI50,[53],16.3 µM
same,TGI,[53],32 µM
same,GI50,[54],12.8 µM
same,TGI,[54],25.5 µM
same,GI50,[55],12.9 µM
same,TGI,[55],27.5 µM
same,GI50,[56],6.8 µM
same,TGI,[56],20.6 µM
same,GI50,[57],3.54 µM
same,TGI,[57],17 µM
O=C(O)c1ccc(-c2ccc(/C=N/NC(=O)c3[nH]c4ccc(Br)cc4c3-c3ccccc3)o2)cc1,GI50,[1],24.2 µM
same,TGI,[1],> 100 µM
same,GI50,[2],23.6 µM
same,TGI,[2],85.7 µM
same,GI50,[3],32.3 µM
same,TGI,[3],> 100 µM
same,GI50,[4],29.3 µM
same,TGI,[4],> 100 µM
same,GI50,[5],20.1 µM
same,TGI,[5],51.7 µM
same,GI50,[6],22 µM
same,TGI,[6],98.7 µM
same,GI50,[7],19.3 µM
same,TGI,[7],> 100 µM
same,GI50,[8],26.4 µM
same,TGI,[8],83.8 µM
same,GI50,[9],36.4 µM
same,TGI,[9],> 100 µM
same,GI50,[10],28.8 µM
same,TGI,[10],> 100 µM
same,GI50,[11],16.1 µM
same,TGI,[11],30.7 µM
same,GI50,[12],27.7 µM
same,TGI,[12],> 100 µM
same,GI50,[13],18.6 µM
same,TGI,[13],> 100 µM
same,GI50,[14],12.4 µM
same,TGI,[14],36.1 µM
same,GI50,[15],29.5 µM
same,TGI,[15],> 100 µM
same,GI50,[16],10.6 µM
same,TGI,[16],42.2 µM
same,GI50,[17],3.87 µM
same,TGI,[17],72 µM
same,GI50,[18],21.9 µM
same,TGI,[18],54.7 µM
same,GI50,[19],25.3 µM
same,TGI,[19],86.1 µM
same,GI50,[20],20.8 µM
same,TGI,[20],98.4 µM
same,GI50,[21],22.4 µM
same,TGI,[21],66.2 µM
same,GI50,[22],20 µM
same,TGI,[22],> 100 µM
same,GI50,[23],29.8 µM
same,TGI,[23],> 100 µM
same,GI50,[24],19.1 µM
same,TGI,[24],> 100 µM
same,GI50,[25],28.3 µM
same,TGI,[25],> 100 µM
same,GI50,[26],27.9 µM
same,TGI,[26],> 100 µM
same,GI50,[27],12.5 µM
same,TGI,[27],41.1 µM
same,GI50,[28],19.5 µM
same,TGI,[28],79.6 µM
same,GI50,[29],20.3 µM
same,TGI,[29],96.6 µM
same,GI50,[30],34.5 µM
same,TGI,[30],> 100 µM
same,GI50,[31],34.1 µM
same,TGI,[31],> 100 µM
same,GI50,[32],21.3 µM
same,TGI,[32],72.8 µM
same,GI50,[33],7.64 µM
same,TGI,[33],34.4 µM
same,GI50,[34],12.2 µM
same,TGI,[34],43.1 µM
same,GI50,[35],21.1 µM
same,TGI,[35],> 100 µM
same,GI50,[36],36.5 µM
same,TGI,[36],> 100 µM
same,GI50,[37],20.7 µM
same,TGI,[37],63.4 µM
same,GI50,[38],25.1 µM
same,TGI,[38],> 100 µM
same,GI50,[39],25.9 µM
same,TGI,[39],> 100 µM
same,GI50,[40],11.3 µM
same,TGI,[40],95.1 µM
same,GI50,[41],20.8 µM
same,TGI,[41],> 100 µM
same,GI50,[42],20.4 µM
same,TGI,[42],55.8 µM
same,GI50,[43],14.7 µM
same,TGI,[43],36.7 µM
same,GI50,[58],14.6 µM
same,TGI,[58],37.3 µM
same,GI50,[44],15.8 µM
same,TGI,[44],> 100 µM
same,GI50,[45],15.7 µM
same,TGI,[45],33 µM
same,GI50,[46],28.3 µM
same,TGI,[46],76.7 µM
same,GI50,[47],24.8 µM
same,TGI,[47],80.8 µM
same,GI50,[48],21.6 µM
same,TGI,[48],> 100 µM
same,GI50,[49],4.02 µM
same,TGI,[49],33.3 µM
same,GI50,[50],11.8 µM
same,TGI,[50],45.6 µM
same,GI50,[51],25.4 µM
same,TGI,[51],> 100 µM
same,GI50,[52],30.9 µM
same,TGI,[52],> 100 µM
same,GI50,[53],38.7 µM
same,TGI,[53],> 100 µM
same,GI50,[54],20 µM
same,TGI,[54],83.1 µM
same,GI50,[55],24.5 µM
same,TGI,[55],> 100 µM
same,GI50,[56],4.98 µM
same,TGI,[56],25.2 µM
same,GI50,[57],25 µM
same,TGI,[57],> 100 µM
